Test results as given in PubChem BioAssay AID248 (DTP/NCI, 2004).
Several values for one entry are separate records, joined by “and”; a condition that tells them apart may be missing. Equal entries are not always repeated. Inconclusive results and toxic doses are left out. No stated cut-off is given here; in the data, active means T/C of 150% or more; inactive means T/C below 125%.

System: L1210 leukemia ip in BDF1 mice, survival T/C
Assay: NCI In Vivo Anticancer Drug Screen. Data for tumor model L1210 Leukemia (intraperitoneal) in B6D2F1 (BDF1) mice
Details: endpoint: mean survival time, higher = longer survival
Method in brief: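 Transplantable tumor model; survival measured in treated vs vehicle control mice. Value = treated/control.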

[1] = dose: 100.0 mg/kg/injection, schedule: Q01DX009 (ip), vehicle: saline with Tween-80
[2] = dose: 100.0 mg/kg/injection, schedule: Q04DX003 (ip), vehicle: saline with Tween-80
[3] = dose: 200.0 mg/kg/injection, schedule: Q01DX009 (ip), vehicle: saline with Tween-80
[4] = dose: 200.0 mg/kg/injection, schedule: Q04DX003 (ip), vehicle: saline with Tween-80
[5] = dose: 400.0 mg/kg/injection, schedule: Q01DX009 (ip), vehicle: saline with Tween-80
[6] = dose: 400.0 mg/kg/injection, schedule: Q04DX003 (ip), vehicle: saline with Tween-80
[7] = dose: 100.0 mg/kg/injection, schedule: Q04DX003 (ip), vehicle: Klucel (hydroxypropylcellulose) (HPC)
[8] = dose: 200.0 mg/kg/injection, schedule: Q04DX003 (ip), vehicle: Klucel (hydroxypropylcellulose) (HPC)
[9] = dose: 400.0 mg/kg/injection, schedule: Q04DX003 (ip), vehicle: Klucel (hydroxypropylcellulose) (HPC)
[10] = dose: 100.0 mg/kg/injection, schedule: Q01DX009 (ip), vehicle: Klucel (hydroxypropylcellulose) (HPC)
[11] = dose: 200.0 mg/kg/injection, schedule: Q01DX009 (ip), vehicle: Klucel (hydroxypropylcellulose) (HPC)
[12] = dose: 100.0 mg/kg/injection, schedule: Q01DX009 (ip), vehicle: saline
[13] = dose: 200.0 mg/kg/injection, schedule: Q01DX009 (ip), vehicle: saline
[14] = dose: 400.0 mg/kg/injection, schedule: Q01DX009 (ip), vehicle: saline
[15] = dose: 25.0 mg/kg/injection, schedule: Q01DX009 (ip), vehicle: saline with Tween-80
[16] = dose: 25.0 mg/kg/injection, schedule: Q04DX003 (ip), vehicle: saline with Tween-80
[17] = dose: 50.0 mg/kg/injection, schedule: Q01DX009 (ip), vehicle: saline with Tween-80
[18] = dose: 50.0 mg/kg/injection, schedule: Q04DX003 (ip), vehicle: saline with Tween-80
[19] = dose: 100.0 mg/kg/injection, schedule: Q01DX001 (ip), vehicle: saline
[20] = dose: 200.0 mg/kg/injection, schedule: Q01DX001 (ip), vehicle: saline
[21] = dose: 400.0 mg/kg/injection, schedule: Q01DX001 (ip), vehicle: saline
[22] = dose: 100.0 mg/kg/injection, schedule: Q01DX001 (ip), vehicle: Klucel (hydroxypropylcellulose) (HPC)
[23] = dose: 200.0 mg/kg/injection, schedule: Q01DX001 (ip), vehicle: Klucel (hydroxypropylcellulose) (HPC)
[24] = dose: 400.0 mg/kg/injection, schedule: Q01DX001 (ip), vehicle: Klucel (hydroxypropylcellulose) (HPC)
[25] = dose: 400.0 mg/kg/injection, schedule: Q01DX009 (ip), vehicle: Klucel (hydroxypropylcellulose) (HPC)
[26] = dose: 100.0 mg/kg/injection, schedule: Q04DX003 (ip), vehicle: saline

Measured: T/C

COc1ccc(OC)c(C(Nc2ccc3cn[nH]c3c2)P(=O)(c2ccccc2)c2ccccc2)c1 (stereo not given)
inactive: dose: 100.0 mg/kg/injection, schedule: Q01DX001 (ip), vehicle: saline with Tween-80 93 % of control | [1] 95 % of control | dose: 100.0 mg/kg/injection, schedule: Q04DX002 (ip), vehicle: saline with Tween-80 103 % of control and 104 % of control | [2] 96 % of control | dose: 200.0 mg/kg/injection, schedule: Q01DX001 (ip), vehicle: saline with Tween-80 103 % of control | [3] 95 % of control | dose: 200.0 mg/kg/injection, schedule: Q04DX002 (ip), vehicle: saline with Tween-80 95 % of control and 90 % of control | [4] 95 % of control | dose: 400.0 mg/kg/injection, schedule: Q01DX001 (ip), vehicle: saline with Tween-80 92 % of control | [5] 97 % of control | dose: 400.0 mg/kg/injection, schedule: Q04DX002 (ip), vehicle: saline with Tween-80 93 % of control | [6] 92 % of control

O=C(O)CCC(NC(=O)OCc1ccccc1)C(=O)O (stereo not given)
inactive: [1] 100 % of control | [7] 103 % of control | dose: 100.0 mg/kg/injection, schedule: Q04DX003 (ip), vehicle: other 98 % of control | [2] 104 % of control and 95 % of control | [3] 98 % of control | [8] 99 % of control | dose: 200.0 mg/kg/injection, schedule: Q04DX003 (ip), vehicle: other 102 % of control | [4] 101 % of control and 92 % of control | [5] 98 % of control | [9] 91 % of control | dose: 400.0 mg/kg/injection, schedule: Q04DX003 (ip), vehicle: other 98 % of control | [6] 101 % of control and 104 % of control

Cc1ccc(C)c(NC(=O)Oc2ccc(C(=O)OCc3ccccc3)cc2)c1
inactive: dose: 25.0 mg/kg/injection, schedule: Q01DX009 (ip), vehicle: Klucel (hydroxypropylcellulose) (HPC) 100 % of control | dose: 50.0 mg/kg/injection, schedule: Q01DX009 (ip), vehicle: Klucel (hydroxypropylcellulose) (HPC) 88 % of control | [10] 93 % of control and 104 % of control | [7] 107 % of control | [11] 95 % of control | [8] 98 % of control | [9] 101 % of control

C=C1C2CCC3C4(C)CC(OC5OC(CO)C(OS(=O)(=O)O)C(OS(=O)(=O)O)C5OC(=O)CCCC)CC(C(=O)O)(C(=O)O)C4CCC3(C2)C1O (stereo not given)
inactive: dose: 3.12 mg/kg/injection, schedule: Q04DX002 (ip), vehicle: saline 103 % of control | dose: 6.25 mg/kg/injection, schedule: Q04DX002 (ip), vehicle: saline 95 % of control

Cn1c(=O)c2ccccc2n(C)c1=O
inactive: [7] 96 % of control | [8] 102 % of control | [9] 100 % of control

OCCC#CCCCO
inactive: [12] 93 % of control | [13] 92 % of control | [14] 88 % of control

CSc1cc(-c2ccc(Cl)cc2)s[s+]1
inactive: dose: 12.5 mg/kg/injection, schedule: Q01DX009 (ip), vehicle: saline with Tween-80 95 % of control | [15] 90 % of control | [16] 100 % of control | [17] 97 % of control | [18] 103 % of control | [2] 98 % of control and 86 % of control

O/N=C/c1cnccn1
inactive: [19] 105 % of control | [20] 105 % of control

COC(=O)c1cc(C)cc(Oc2ccccc2[N+](=O)[O-])c1C
inactive: [19] 96 % of control | [20] 98 % of control | [21] 98 % of control

O=C1C=C(Nc2ccccc2)C(=O)N1c1ccccc1
inactive: [19] 95 % of control | [20] 95 % of control

CCCCCCCC(=O)N1C(=O)CCC1C(=O)NCC(=O)NCC(=O)OCc1ccccc1 (stereo not given)
inactive: [22] 95 % of control | [23] 98 % of control | [24] 91 % of control

CN(C)N=Nc1cn(C2OC(CO)C(O)C2O)c(=O)[nH]c1=O (stereo not given)
inactive: [12] 111 % of control | [13] 120 % of control

CNC1(c2ccccc2)CC2CCC(C2)C1=O (stereo not given)
inactive: dose: 25.0 mg/kg/injection, schedule: Q04DX003 (ip), vehicle: saline 100 % of control | dose: 50.0 mg/kg/injection, schedule: Q04DX003 (ip), vehicle: saline 86 % of control | [19] 102 % of control

CS(=O)(=O)NCC1OC(n2cnc3c(N)ncnc32)C(O)C1O (stereo not given)
inactive: [19] 104 % of control | [20] 96 % of control | [21] 98 % of control

CC1C2CCC(C2)C1(C)C (stereo not given)
inactive: [22] 93 % of control | [23] 100 % of control | [24] 102 % of control

CCCCOCCOP(OCCOCCCC)OCCOCCCC
inactive: [10] 101 % of control | [11] 102 % of control | [25] 90 % of control

CN(C)C(=N)C(=N)N(C)C
inactive: [12] 96 % of control | [26] 98 % of control | [13] 88 % of control | dose: 200.0 mg/kg/injection, schedule: Q04DX003 (ip), vehicle: saline 100 % of control | [14] 94 % of control | dose: 400.0 mg/kg/injection, schedule: Q04DX003 (ip), vehicle: saline 93 % of control

N#Cc1ccc(CCCCCCc2ccc(C#N)cc2)cc1
inactive: [15] 95 % of control | dose: 50.0 mg/kg/injection, schedule: Q01DX001 (ip), vehicle: carboxymethylcellulose (CMC) 101 % of control | [17] 95 % of control | dose: 100.0 mg/kg/injection, schedule: Q01DX001 (ip), vehicle: carboxymethylcellulose (CMC) 106 % of control | [1] 94 % of control | dose: 200.0 mg/kg/injection, schedule: Q01DX001 (ip), vehicle: carboxymethylcellulose (CMC) 110 % of control | dose: 400.0 mg/kg/injection, schedule: Q01DX001 (ip), vehicle: carboxymethylcellulose (CMC) 120 % of control

COc1ccc(C(=O)/C=C/c2ccccc2Cl)cc1
inactive: [2] 97 % of control | [4] 97 % of control

CCC(C)N(CCNc1cc(C)nc(/N=C(\N)Nc2ccc(Cl)c(Cl)c2)n1)C(C)CC (stereo not given)
inactive: [10] 106 % of control | [11] 97 % of control | [25] 86 % of control

CCCN(CCC)CC(O)c1ccc2cccc3c2c1CC3 (stereo not given)
inactive: dose: 75.0 mg/kg/injection, schedule: Q01DX001 (ip), vehicle: saline 104 % of control | dose: 150.0 mg/kg/injection, schedule: Q01DX001 (ip), vehicle: saline 98 % of control | dose: 300.0 mg/kg/injection, schedule: Q01DX001 (ip), vehicle: saline 95 % of control

CC(C)=CN1CC2CCCC(CC2)C1
inactive: [7] 98 % of control | [8] 101 % of control

CN(C)c1ccc(N=Cc2cc[n+](C)cc2)cc1
inactive: dose: 25.0 mg/kg/injection, schedule: Q01DX009 (ip), vehicle: saline 92 % of control | dose: 50.0 mg/kg/injection, schedule: Q01DX009 (ip), vehicle: saline 100 % of control | [26] 87 % of control

O=C(Nc1cc(C(F)(F)F)ccc1Cl)c1cccc(C(=O)Nc2cc(C(F)(F)F)ccc2Cl)c1
inactive: dose: 12.5 mg/kg/injection, schedule: Q04DX003 (ip), vehicle: saline with Tween-80 93 % of control | [16] 96 % of control | [18] 95 % of control | [4] 87 % of control

O=C(NNc1ccccc1)C(O)C(O)C(O)C(O)C(O)CO (stereo not given)
inactive: dose: 100.0 mg/kg/injection, schedule: Q04DX002 (ip), vehicle: Klucel (hydroxypropylcellulose) (HPC) 98 % of control | dose: 200.0 mg/kg/injection, schedule: Q04DX002 (ip), vehicle: Klucel (hydroxypropylcellulose) (HPC) 95 % of control | dose: 400.0 mg/kg/injection, schedule: Q04DX002 (ip), vehicle: Klucel (hydroxypropylcellulose) (HPC) 91 % of control

N#CCC(CC#N)C(c1cccc2ccccc12)c1cccc2ccccc12
inactive: dose: 75.0 mg/kg/injection, schedule: Q04DX002 (ip), vehicle: Klucel (hydroxypropylcellulose) (HPC) 94 % of control | dose: 150.0 mg/kg/injection, schedule: Q04DX002 (ip), vehicle: Klucel (hydroxypropylcellulose) (HPC) 101 % of control | dose: 300.0 mg/kg/injection, schedule: Q04DX002 (ip), vehicle: Klucel (hydroxypropylcellulose) (HPC) 90 % of control
